Experimental findings from article PMC12524408 (International Journal of Molecular Sciences, 2025) are described below.

Test [1] relates to DSS-induced colitis. Nature of the test: Effect of 25 nmol/kg PEG-AM in DSS-induced colitis (Study No. P180567). It counts as in vivo, mouse. The note with it: 25 nmol/kg single i.v. one day before DSS, vs control, n = 20. The text has this: The detailed rationale for this choice is provided in the Discussion. Two groups (control and treatment with 25 nmol/kg PEG-AM) were compared, each consisting of 20 animals.  Figure 5 Effect of 25 nmol/kg PEG-AM in DSS-induced colitis (Study No. P180567). (a) Overview of the experimental design. Groups: vehicle (n = 20), PEG-AM 25 nmol/kg (n = 20). (b) Total inflammation scores on day 8. ** p < 0.01, Mann–Whitney U test. (c) Bloody stool scores on day 8, *** p < 0.001, Mann–Whitney U test. (d) Colon length. (e) Colon weight-to-length ratio, ** p < 0.01, unpaired t-test. (f) PEG-AM plasma concentrations on day 8. (g–j) Fold changes in gene expression of RAMP1 (g), RAMP2 (h), RAMP3 (i), and CLR (j). * p < 0.05, unpaired t-test. To evaluate the pharmacological effects of PEG-AM, three animal studies were conducted by the LSI Medience Corporation following the Animal Welfare Act and institutional approval. Seven-week-old male C57BL/6J JCL mice (CLEA Japan, Inc., Tokyo, Japan) were used in all studies and were housed under pathogen-free conditions. Colitis was induced with 3% (w/v) DSS (MW 5000) in drinking water for seven days. PEG-AM (1.0, 5.0, and 25 nmol/kg) or saline (control) was administered intravenously one day before DSS treatment. Each group included 10 mice. Stool consistency, bleeding, and body weight were evaluated on days −1, 0, 3, 5, and 7. A total inflammation score was calculated. Mice were anesthetized with 3% isoflurane (Zoetis Japan, Tokyo, Japan), and the colon was excised on day 7. Following the protocol described in Section 4.6.1, this study was conducted to confirm the efficacy of 25 nmol/kg intravenous PEG-AM. Each treatment group consisted of 20 mice.

Test [2] has as its system DSS-induced colitis. Nature of the test: Dose-dependent study of intravenous PEG-AM in DSS-induced colitis (Study No. P170454). The test is classed as in vivo, mouse. The note with it: 1, 5, 25 nmol/kg single i.v. one day before 3% DSS (MW 5000); vs vehicle; n = 10 per group. Here is the method: We examined the effects of intravenous administration of PEG-AM on DSS-induced colitis, as per the experimental design in Figure 4a. PEG-AM was administered one day before DSS exposure to evaluate its prophylactic effect against colitis onset and progression.  Figure 4 Dose-dependent effects of intravenous PEG-AM administration in DSS-induced colitis (Study No. P170454). (a) Overview of the experimental design. Groups: vehicle (n = 10), PEG-AM 1 nmol/kg (n = 10), 5 nmol/kg (n = 10), 25 nmol/kg (n = 10). (b) Total inflammation scores on day 8. (c) Colon length. (d) Colon weight-to-length ratio. (e) PEG-AM plasma concentrations on day 8. To evaluate the pharmacological effects of PEG-AM, three animal studies were conducted by the LSI Medience Corporation following the Animal Welfare Act and institutional approval. Seven-week-old male C57BL/6J JCL mice (CLEA Japan, Inc., Tokyo, Japan) were used in all studies and were housed under pathogen-free conditions. Colitis was induced with 3% (w/v) DSS (MW 5000) in drinking water for seven days. PEG-AM (1.0, 5.0, and 25 nmol/kg) or saline (control) was administered intravenously one day before DSS treatment. Each group included 10 mice. Stool consistency, bleeding, and body weight were evaluated on days −1, 0, 3, 5, and 7. A total inflammation score was calculated. Mice were anesthetized with 3% isoflurane (Zoetis Japan, Tokyo, Japan), and the colon was excised on day 7.

Turning to “40 kDa PEGylated adrenomedullin [PEG-AM]”, the “Bloody stool score on day 8” value in the test on DSS-induced colitis [1] (p = 0.0008, Mann-Whitney U test) was “significantly lower”. The “Colon weight per unit length” value in the test on DSS-induced colitis [1] (p = 0.0024, unpaired t-test) is reported as “significantly lower”; in the test on DSS-induced colitis [2] it was “no significant differences”. Moreover, the “Total inflammation score on day 8” value is given as “significantly lower” in the test with DSS-induced colitis [1] (p = 0.0062, Mann-Whitney U test) and “no statistically significant differences” with DSS-induced colitis [2]. Moreover, the Colon length result in the test with DSS-induced colitis [1] (p = 0.1429, unpaired t-test) is listed as “not significantly different”; with DSS-induced colitis [2] it was “comparable across all groups”.
